Data from US9051339B2, “Sulfur-containing bicyclic compound” (Astellas Pharma Inc., priority 2013, dated 2015).
Structures can show the parent of a compound that is named as a salt.

Target: T1, GABAB receptor (Mus musculus, UniProt Q80T41+Q9WV18)
T1 construct: a mouse brain cortex membrane (4 μg); tissue Japan SLC, Inc. (ddY mice); host or cells: mouse brain cortex membrane
Assay: [35S]GTPγS binding test for PAM action, mouse brain cortical membrane
Format: biochemical
Settings: 100 μM GABA = 100%; for EC50: concentration raising reaction rate from 20% with 0.3 μM GABA to 50%, mouse brain cortex membrane, read-out: Potency (PAM Potency of GABAB); for Emax: read-out: Efficacy (PAM Efficacy of GABAB)
Protocol: The function of the GABAB receptor of the compound of the present invention was evaluated using a [^35S] GTPγS binding test. This method is used for the detection of the PAM action of the compound on the GABAB receptor (Journal of Pharmacology and Experimental Therapeutics, 2003, vol. 307(1), p. 322-330; and Molecular Pharmacology, 2001, vol. 60(5), p. 963-971).
The mouse brain cortical membrane was prepared with reference to a method for preparing a rat brain membrane (European Journal of Pharmacology, 1990, vol. 187 (1), p. 27-38).
The cortex (about 30 g) was cut out of the brains of 90 ddY mice (Japan SLC, Inc.). An A buffer was added to the cortex (cortex/A buffer=about 1:3 (wt/vol)), and homogenized with a glass Teflon-lined homogenizer (Teflon: registered trademark) on ice. The homogenate was centrifuged (750 g, 10 min, 4° C.) and a supernatant was then obtained. An A buffer (90 mL) was added to pellets and homogenized on ice, and a supernatant (750 g, 10 min, 4° C.) was then obtained. By repeating this operation, the supernatant was collected.
The supernatant was centrifuged (18000 g, 15 min, 4° C.). Ultrapure water (54 mL) was added to the pellets, left to stand for 30 min on ice, and then centrifuged (39000 g, 20 min, 4° C.). The pellets were suspended in a KH buffer (54 mL), repeatedly frozen and thawed, and centrifuged (18000 g, 15 min) at 4° C. The buffer was added to the pellets and then frozen and thawed, and this operation was repeated until the centrifugation. By a Bradford method using a protein assay (Protein assay CBB solution; Nacalai Tesque, Inc.), a KH buffer suspension of the pellet was prepared at a protein concentration of 10 mg/mL.
The PAM action of the GABAB receptor in the mouse brain cortex of a test drug was evaluated. To each of wells of a 96-well microplate, a test drug diluted with a B buffer at each concentration (3 nM to 30 μM), a mouse brain cortex membrane (4 μg), [^35S] GTPγS (final concentration of 0.34 nM, Muromachi Yakuhin Co., Ltd.; Institute of Isotopes Co., Ltd.), GABA (final concentration of 0.3 μM; Sigma) were added in this order, followed by standing at room temperature for 1 hour. With a harvester (Filtermate, Perkin-Elmer, Inc.), the suspension was suction-filtered through a glass filter (UniFilter 96-well GF/B filter plates, Perkin-Elmer, Inc.). The glass filter was washed with a C buffer that had been ice-cooled. After drying the glass filter, a liquid scintillation cocktail (50 μL, MicroScinti-PS; PerkinElmer, Inc.) was added to each well. The amount of [^35S] GTPγS bound to the membrane was measured on a plate reader (TopCount, PerkinElmer, Inc.).
The maximum reaction rate of 100 μM GABA was taken as 100%. […] At a time when the test drug was not added, the concentration of the test drug that increased the reaction rate from 20% with 0.3 μM GABA to 50% was taken as a PAM Potency (μM) of the GABAB of the test drug. In the presence of 0.3 μM GABA, the maximum reaction rate of the effect on the GABAB receptor when the test drug was administered up to maximum 30 μM was taken as a PAM Efficacy (%) of the GABAB of the test drug.
The Potency and Efficacy of several representative Example Compounds of the present invention are shown in Table below (In the Table, Ex represents Example Compound No. The “Potency” represents the PAM Potency of GABAB of the test drug, and the “Efficacy” represents PAM Efficacy (%) of GABAB of the test drug. These shall apply hereinafter).

[1] = maximum reaction rate in presence of 0.3 μM GABA, test drug up to 30 μM

T1 sequence (Q9WV18 20-960): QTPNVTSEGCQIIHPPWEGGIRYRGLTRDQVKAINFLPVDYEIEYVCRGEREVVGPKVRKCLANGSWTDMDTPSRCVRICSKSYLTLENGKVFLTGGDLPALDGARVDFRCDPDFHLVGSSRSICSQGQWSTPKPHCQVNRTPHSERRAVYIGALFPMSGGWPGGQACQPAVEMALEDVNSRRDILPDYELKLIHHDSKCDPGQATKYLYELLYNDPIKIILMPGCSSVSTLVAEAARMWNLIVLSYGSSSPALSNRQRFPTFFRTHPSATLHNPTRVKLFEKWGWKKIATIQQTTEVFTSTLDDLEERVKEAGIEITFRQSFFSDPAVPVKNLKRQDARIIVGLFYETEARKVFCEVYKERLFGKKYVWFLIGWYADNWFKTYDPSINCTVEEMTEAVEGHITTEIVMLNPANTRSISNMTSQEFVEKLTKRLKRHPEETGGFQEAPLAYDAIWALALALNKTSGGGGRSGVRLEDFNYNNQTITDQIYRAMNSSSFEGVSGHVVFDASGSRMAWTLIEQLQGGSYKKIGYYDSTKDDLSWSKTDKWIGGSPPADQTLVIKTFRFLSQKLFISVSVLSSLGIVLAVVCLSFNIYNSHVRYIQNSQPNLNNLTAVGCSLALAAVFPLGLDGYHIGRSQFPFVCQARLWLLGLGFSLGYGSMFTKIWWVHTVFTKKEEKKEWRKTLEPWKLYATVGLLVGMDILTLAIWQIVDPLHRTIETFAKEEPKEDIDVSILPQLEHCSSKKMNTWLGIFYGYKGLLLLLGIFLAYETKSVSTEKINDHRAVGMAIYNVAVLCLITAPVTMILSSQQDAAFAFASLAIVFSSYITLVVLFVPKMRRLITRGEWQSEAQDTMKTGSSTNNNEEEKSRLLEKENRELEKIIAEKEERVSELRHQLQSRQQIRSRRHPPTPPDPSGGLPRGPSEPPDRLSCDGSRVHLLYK
T1 sequence (Q80T41 41-940): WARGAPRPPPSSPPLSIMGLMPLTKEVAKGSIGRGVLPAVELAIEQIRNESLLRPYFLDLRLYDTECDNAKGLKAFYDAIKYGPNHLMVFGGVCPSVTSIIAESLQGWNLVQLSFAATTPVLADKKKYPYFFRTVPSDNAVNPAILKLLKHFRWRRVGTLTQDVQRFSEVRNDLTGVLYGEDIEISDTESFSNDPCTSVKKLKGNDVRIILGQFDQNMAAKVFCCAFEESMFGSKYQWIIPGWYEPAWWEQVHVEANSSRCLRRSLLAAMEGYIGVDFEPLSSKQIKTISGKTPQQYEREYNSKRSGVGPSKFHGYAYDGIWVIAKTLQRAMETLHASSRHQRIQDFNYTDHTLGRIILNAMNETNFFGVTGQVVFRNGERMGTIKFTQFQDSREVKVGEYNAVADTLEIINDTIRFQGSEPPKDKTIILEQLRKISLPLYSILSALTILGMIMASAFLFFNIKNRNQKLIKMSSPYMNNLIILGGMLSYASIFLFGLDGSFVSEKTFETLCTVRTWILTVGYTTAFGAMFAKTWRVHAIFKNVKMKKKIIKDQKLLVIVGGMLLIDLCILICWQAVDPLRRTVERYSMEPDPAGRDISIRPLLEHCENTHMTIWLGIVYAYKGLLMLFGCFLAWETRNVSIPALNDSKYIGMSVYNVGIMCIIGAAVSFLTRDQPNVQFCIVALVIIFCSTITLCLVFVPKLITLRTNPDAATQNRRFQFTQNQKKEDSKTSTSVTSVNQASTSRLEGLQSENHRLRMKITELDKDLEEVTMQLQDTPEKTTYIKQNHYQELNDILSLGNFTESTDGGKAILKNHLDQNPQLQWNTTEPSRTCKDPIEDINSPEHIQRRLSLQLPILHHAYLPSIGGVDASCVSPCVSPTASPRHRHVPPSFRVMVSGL

| EC50 [nM] | Efficacy (PAM Efficacy of GABAB) [1] [%] | Emax [1] [%] | SMILES |
| --- | --- | --- | --- |
| 180 | 191 | – | Cc1nc(CN2CC[C@@H](O)[C@H](O)C2)c2cc(C3CCC(C)(C)CC3)sc2n1 (single isomer, unassigned) [Ex31-1, trans-1-{[6-(4,4-dimethylcyclohexyl)-2-methylthieno[2,3-d]pyrimidin-4-yl]methyl}piperidine-3,4-diol] |
| 200 | – | 161 | Cc1nc(CN2CCC(O)(CO)CC2)c2cc(C3CCC(C)(C)CC3)sc2n1 [Ex4] |
| 240 | – | 176 | Cc1nc(CN2CC[C@@H](O)[C@H](O)C2)c2cc(C3CCC(C)(C)CC3)sc2n1 [Ex5] |
| 240 | – | 139 | Cc1nc(CN2CCC(CO)(CO)CC2)c2cc(C3CCC(C)(C)CC3)sc2n1 [Ex7] |
| 230 | – | 377 | Cc1nc(CN2CCC(O)(C(F)(F)F)CC2)c2cc(C3CCC(C)(C)CC3)sc2n1 [Ex12] |
| 420 | – | 165 | Cc1nc(CN2C[C@@H](C)O[C@@H](C)C2)c2cc(C3CCC(C)(C)CC3)sc2n1 [Ex39] |
| 530 | – | 203 | Cc1nc(CN2CCOC(C)(C)C2)c2cc(C3CCC(C)(C)CC3)sc2n1 [Ex40] |
| 260 | – | 118 | Cc1nc(CN2CCC3(CC2)CC3)c2cc(C3CCC(C)(C)CC3)sc2n1 [Ex43] |
| 270 | – | 119 | Cc1nc(CN2CCC(C)(C)CC2)c2cc(C3CCC(C)(C)CC3)sc2n1 [Ex44] |
| 440 | – | 134 | Cc1nc(CN2CCCC(C)(C)C2)c2cc(C3CCC(C)(C)CC3)sc2n1 [Ex45] |
| 180 | – | 188 | COC1(CO)CCN(Cc2nc(C)nc3sc(C4CCC(C)(C)CC4)cc23)CC1 [Ex46] |
| 120 | – | 240 | Cc1nc(CN2CCC(C)(O)CC2)c2cc(C3CCC(C)(C)CC3)sc2n1 [Ex47] |
| 260 | – | 238 | CCC1(O)CCN(Cc2nc(C)nc3sc(C4CCC(C)(C)CC4)cc23)CC1 [Ex48] |
| 540 | – | 222 | COCC1(O)CCN(Cc2nc(C)nc3sc(C4CCC(C)(C)CC4)cc23)CC1 [Ex50] |
| 150 | – | 249 | Cc1nc(CN2CCC(O)C(F)C2)c2cc(C3CCC(C)(C)CC3)sc2n1 (stereo not drawn) [Ex51] |
| 170 | – | 259 | Cc1nc(CN2CCC(O)CC2)c2cc(C3CCC(C)(C)CC3)sc2n1 [Ex52, 1-{[6-(4,4-dimethylcyclohexyl)-2-methylthieno[2,3-d]pyrimidin-4-yl]methyl}piperidin-4-ol hydrochloride] |
| 320 | – | 88 | Cc1nc(CN2CC[C@@H](O)[C@@H](O)C2)c2cc(C3CCC(C)(C)CC3)sc2n1 [Ex54] |
| 250 | – | 175 | Cc1nc(CN2CCC(F)(F)CC2)c2cc(C3CCC(C)(C)CC3)sc2n1 [Ex55] |

| EC50 [nM] | Efficacy (PAM Efficacy of GABAB) [1] [%] | Emax [1] [%] | SMILES |
| --- | --- | --- | --- |
| 240 | – | 160 | Cc1nc(CN2CCC(C(F)F)CC2)c2cc(C3CCC(C)(C)CC3)sc2n1 [Ex61] |
| 89 | – | 289 | Cc1nc(CN2CCC[C@@H](O)C2)c2cc(C3CCC(C)(C)CC3)sc2n1 [Ex72] |
| 85 | – | 272 | Cc1nc(CN2CCC[C@H](O)C2)c2cc(C3CCC(C)(C)CC3)sc2n1 [Ex73] |
| 190 | – | 244 | Cc1nc(CN2CCSCC2)c2cc(C3CCC(C)(C)CC3)sc2n1 [Ex74] |
| 46 | – | 230 | Cc1nc(CN2CCOCC2(C)C)c2cc(C3CCC(C)(C)CC3)sc2n1 [Ex79] |
| 380 | – | 134 | Cc1nc(CN2CCOC[C@H]2CO)c2cc(C3CCC(C)(C)CC3)sc2n1 [Ex101] |
| 400 | – | 127 | Cc1nc(CN2CCOC[C@@H]2CO)c2cc(C3CCC(C)(C)CC3)sc2n1 [Ex102] |
| 79 | – | 218 | Cc1nc(CN2CC[C@@H](O)[C@](C)(O)C2)c2cc(C3CCC(C)(C)CC3)sc2n1 [Ex104] |
| 200 | – | 176 | Cc1nc(CN2CCS(=O)(=O)CC2)c2cc(C3CCC4(CC3)CC4)sc2n1 [Ex108, 4-[(1,1-dioxidothiomorpholin-4-yl)methyl]-2-methyl-6-(spiro[2.5]octa-6-yl)thieno[2,3-d]pyrimidine] |
| 110 | – | 338 | Cc1nc(CN2CCC(O)C(CO)C2)c2cc(C3CCC(C)(C)CC3)sc2n1 (stereo not drawn) [Ex127] |
| 150 | – | 218 | Cc1nc(CN2CCOCC2)c2cc(C3CCC(C)(C)CC3)sc2n1 [Ex132] |
| 7.1 | – | 214 | Cc1nc(CN2CCC(O)CC2(C)C)c2cc(C3CCC(C)(C)CC3)sc2n1 (stereo not drawn) [Ex142] |
| 1200 | – | 182 | Cc1nc(CN2CC[C@@H](O)[C@@H](F)C2)c2cc(C3CCC(C)(C)CC3)sc2n1 [Ex143] |
| 310 | – | 182 | Cc1nc(CN2CC[C@H](O)[C@@H](F)C2)c2cc(C3CCC(C)(C)CC3)sc2n1 [Ex144] |
| 100 | – | 258 | Cc1nc(CN2CCC(O)C(C)(C)C2)c2cc(C3CCC(C)(C)CC3)sc2n1 (stereo not drawn) [Ex146] |
| 120 | – | 168 | Cc1nc(CN2CCN(C)CC2(C)C)c2cc(C3CCC(C)(C)CC3)sc2n1 [Ex151] |
| 59 | – | 180 | CC(=O)N1CCN(Cc2nc(C)nc3sc(C4CCC(C)(C)CC4)cc23)C(C)(C)C1 [Ex153, 1-(4-{[6-(4,4-dimethylcyclohexyl)-2-methylthieno[2,3-d]pyrimidin-4-yl]methyl}-3,3-dimethylpiperazin-1-yl)ethanone hydrochloride] |
| 46 | – | 159 | Cc1nc(CN2CCN(C(=O)CO)CC2(C)C)c2cc(C3CCC(C)(C)CC3)sc2n1 [Ex155, 1-(4-{[6-(4,4-dimethylcyclohexyl)-2-methylthieno[2,3-d]pyrimidin-4-yl]methyl}-3,3-dimethylpiperazin-1-yl)-2-hydroxyethanone] |
